The source of these data is US20060216792A1, “Process for producing 2-0-alpha-d-glucopyranosyl-l-ascorbic acid” (priority 2002, published 2006).

A short description of this data set: properties of crystalline AA-2G (stability, hygroscopicity, solubility). Format: physicochemical. An excerpt: Different from the case of L-ascorbic acid, AA-2G hardly causes Maillard reaction. […] Also, by using AA-2G together with vitamins E and P, those biological activities can be increased. • (4) It is possible that AA-2G is produced and metabolized in living bodies when L-ascorbic acid and α-glucosyl saccharide are orally in taken. […] AA-2G can be advantageously used as vitamin C-reinforcement, taste-improving agent, acidifier, stabilizer, and the like for vitamin in the form of powder, granule, tablet, and the like, or foods such as cream, chocolate, chewing gum, instant juice, instant seasoning, and the like. • (6) Crystalline AA-2G is substantially non- or hardly hygroscopic.

As for `O=C1O[C@H]([C@@H](O)CO)C(O)=C1O[C@H]1O[C@H](CO)[C@@H](O)[C@H](O)[C@H]1O` [AA-2G, 2-O-α-D-glucopyranosyl-L-ascorbic acid], the solubility in water entry is “high solubility”. For the setting “crystalline product of Example 1”, the stability entry is “sufficient stability”.
